These results are taken from US20110165611A1, “DUAL MODALITY DETECTION OF APOPTOSIS” (priority 2008, published 2011).

One series deals with liver. Nature of the series: Radio-HPLC analysis of liver extracts from mice injected 99mTc-chelate 4. To be noted: mouse, in vivo. As to the method:
Two hours after intravenous injection of 4 (1 mCi, 80 μg, 0.2 mL) into a mouse treated with […] and a mouse treated with PBS 2 h prior to the injection of the radiotracer, mice were killed and livers were removed and ground at 4° C. using a Dounce homogenizer (Polytron, […], Switzerland) in 5 mL of acetonitrile/methanol (3:1, v/v). After sequential high-speed centrifugation (100,000 g for 20 min) to remove cellular debris and insoluble proteins, the supernatants were concentrated and injected into the radio-HPLC system (condition: solvent A, 0.01 M NH4OAc in water; solvent B, acetonitrile; gradient: 0-80% B in A over 40 min, flow rate 1.0 mL/min, C18 4.6×250 mm, 5-μm column).

The next series has as its system DLD1 cells. Nature of the series: Cellular uptake and efflux of 99mTc-chelate 4, radiotracer analysis. Format: cell-based, human. As to the method: The medium was replaced with 2 mL of medium containing radiotracers 99 mTc-chelate 4 [Ac-DEVD-R110-D-SAAC-99mTc(CO)3] (˜40 μCi/mL) or its fragment R110-D-SAAC-99 mTc(CO)3 (˜40 μCi/mL). The cells were subsequently incubated for 60 and 120 min before the monolayers were scraped, transferred into 5-mL tubes. The tubes were briefly vortexed and 100 μL DLD1 cell suspension were transferred into a microcentrifuge tube containing 500 μL of a 75:25 mixture of silicon oil (density 1.05, Aldrich) and mineral oil (density 0.872, Acros). The mixture was centrifuged at 14,000 rpm for 5 min. After freezing the tubes with liquid nitrogen, the bottom tips containing the cell pellet were cut off. The cell pellets and the supernatants were counted with a γ-counter (Perkin-Elmer). The protein content in 100 μl cell suspension was quantified in a separate experiment using the Bio-Rad protein assay kit according to the manufacturer's protocol. For efflux study, cells were incubated with each radiotracer for 2 hrs, then the medium was removed and the cells washed with medium twice. The cells were incubated with 2 mL of fresh medium for additional 60 min, 120 min, and 180 min. The radioactivity in the cell pellets and media were counted as described before. Activity ratios of the cell pellet to medium ([cpm/g protein in pellet]/[cpm/g medium]) were calculated and plotted against time. The experiments were performed in pentaplicate.

Take R110-D-SAAC-^99mTc(CO)3: in the series on liver, the “Retention of degradation product in liver” value is listed as “retained in the apoptotic liver in its intact form”. In addition, the “Permeability to plasma membrane compared with parent substrate” value with DLD1 cells is “less permeable to plasma membrane”. Also, the “Efflux / retention in DLD1 cells after wash” value in the series with DLD1 cells (2 h loading, fresh medium 60-180 min) is on record as “trapped in the cells”.
